B1: BDNF: Brain Derived Neurotrophic Factor, a neurotrophin; native ligand of TrkB (protein, UniProt P23560 19-247, looked up)
Neurotrophic factor BDNF …: APMKEANIRGQGGLAYPGVRTHGTLESVNGPKAGSRGLTSLADTFEHVIEELLDEDQKVRPNEENNKDADLYTSRVMLSSQVPLEPPLLFLLEEYKNYLDAANMSMRVRRHSDPARRGELSVCDSISEWVTAADKKTAVDMSGGTVTVLEKVPVSKGQLKQYFYETKCNPMGYTKEGCRGIDKRHWNSQCRTTQSYVRALTMDSKKRIGWRFIRIDTSCVCTLTIKRGR

Tests used:
[1] = system: E16-17 hippocampal neurons; assay: Aβ-induced neuronal degeneration (Alzheimer's disease model); assay type: cell-based; settings: for prevention of Aβ-induced degeneration: Aβ1-42 oligomer 10 μM
Method: The ability of the BDNF mimetics to prevent Aβ-induced neuronal degeneration can be tested as a model of the compounds' ability to treat Alzheimer's disease. E16-17 hippocampal neurons are matured for 6 days and then incubated for 3 days with the indicated combinations of Aβ oligomer preparations (Dahigren, K. N., et al. (2002) J Biol Chem 277, 32046-32053), neurotrophins and neurotrophin mimetics. Following the three day incubation, neuronal survival is assessed using standard morphological criteria (Massa, S. M., et al. (2006) J Neurosci 26, 5288-5300).
Addition of Aβ1-42 oligomer (10 μM) but not control AβScrambled oligomer (10 μM) results in an approximate 40% reduction in neuronal survival. […] The effectiveness of BDNF mimetics of the present invention can be compared to BDNF in blocking Aβ-induced degeneration.

TrkB = target: T1, TrkB (Homo sapiens, UniProt Q16620); assay: Trk activation by Western blot of phospho-Trk in NIH3T3 cells expressing TrkB; assay type: cell-based
T1 construct: expressed in transfected cells; host or cells: NIH3T3 (mouse fibroblasts, no native Trk receptors)
Text: (§1) To assess the interactions of the BDNF loop 2 mimetic compounds with TrkB receptors, the ability of the compounds of the invention to activate TrkA, TrkB, and TrkC is compared in a series of Western blotting experiments. […] Western blots were used to detect phospho-Trk which is a standard method for detecting Trk activation.

TrkC = target: T2, TrkC (Homo sapiens, UniProt Q16288); assay: Trk activation by Western blot of phospho-Trk in NIH3T3 cells expressing TrkC; assay type: cell-based
T2 construct: expressed in transfected cells; host or cells: NIH3T3 (mouse fibroblasts, no native Trk receptors)
Method: as §1
A measurement of NIH3T3 cells expressing TrkC can also be used to evaluate the compounds of the invention. Total amount of TrkC present is determined by probing with anti-TrkC antibodies.

[2] = system: mouse E16 striatal neurons; settings: cited from earlier work
TrkA = target: T3, TrkA (Homo sapiens, UniProt P04629); assay: Trk activation by Western blot of phospho-Trk in NIH3T3 cells expressing TrkA; assay type: cell-based
T3 construct: expressed in transfected cells; host or cells: NIH3T3 (mouse fibroblasts, no native Trk receptors)
Text: as §1

T1 sequence (Q16620 32-822): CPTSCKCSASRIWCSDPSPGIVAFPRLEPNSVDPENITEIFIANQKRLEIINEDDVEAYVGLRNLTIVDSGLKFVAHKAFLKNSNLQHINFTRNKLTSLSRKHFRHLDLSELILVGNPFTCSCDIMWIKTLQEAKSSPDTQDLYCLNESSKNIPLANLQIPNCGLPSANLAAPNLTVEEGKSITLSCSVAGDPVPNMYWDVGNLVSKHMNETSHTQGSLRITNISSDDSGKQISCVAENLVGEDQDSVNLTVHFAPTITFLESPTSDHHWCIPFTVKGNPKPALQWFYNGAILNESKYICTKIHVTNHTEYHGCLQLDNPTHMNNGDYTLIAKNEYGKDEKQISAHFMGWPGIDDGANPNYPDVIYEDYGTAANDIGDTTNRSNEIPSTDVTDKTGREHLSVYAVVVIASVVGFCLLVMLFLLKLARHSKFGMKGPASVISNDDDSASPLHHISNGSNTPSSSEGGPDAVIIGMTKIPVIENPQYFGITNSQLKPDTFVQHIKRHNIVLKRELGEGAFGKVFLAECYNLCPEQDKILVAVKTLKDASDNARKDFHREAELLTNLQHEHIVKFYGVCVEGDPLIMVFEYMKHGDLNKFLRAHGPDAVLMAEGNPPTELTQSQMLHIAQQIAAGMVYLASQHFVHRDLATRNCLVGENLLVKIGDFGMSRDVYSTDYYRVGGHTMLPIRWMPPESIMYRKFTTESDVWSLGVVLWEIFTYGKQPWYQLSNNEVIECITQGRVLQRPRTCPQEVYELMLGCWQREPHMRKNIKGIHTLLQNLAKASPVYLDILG
T2 sequence (Q16288 32-839): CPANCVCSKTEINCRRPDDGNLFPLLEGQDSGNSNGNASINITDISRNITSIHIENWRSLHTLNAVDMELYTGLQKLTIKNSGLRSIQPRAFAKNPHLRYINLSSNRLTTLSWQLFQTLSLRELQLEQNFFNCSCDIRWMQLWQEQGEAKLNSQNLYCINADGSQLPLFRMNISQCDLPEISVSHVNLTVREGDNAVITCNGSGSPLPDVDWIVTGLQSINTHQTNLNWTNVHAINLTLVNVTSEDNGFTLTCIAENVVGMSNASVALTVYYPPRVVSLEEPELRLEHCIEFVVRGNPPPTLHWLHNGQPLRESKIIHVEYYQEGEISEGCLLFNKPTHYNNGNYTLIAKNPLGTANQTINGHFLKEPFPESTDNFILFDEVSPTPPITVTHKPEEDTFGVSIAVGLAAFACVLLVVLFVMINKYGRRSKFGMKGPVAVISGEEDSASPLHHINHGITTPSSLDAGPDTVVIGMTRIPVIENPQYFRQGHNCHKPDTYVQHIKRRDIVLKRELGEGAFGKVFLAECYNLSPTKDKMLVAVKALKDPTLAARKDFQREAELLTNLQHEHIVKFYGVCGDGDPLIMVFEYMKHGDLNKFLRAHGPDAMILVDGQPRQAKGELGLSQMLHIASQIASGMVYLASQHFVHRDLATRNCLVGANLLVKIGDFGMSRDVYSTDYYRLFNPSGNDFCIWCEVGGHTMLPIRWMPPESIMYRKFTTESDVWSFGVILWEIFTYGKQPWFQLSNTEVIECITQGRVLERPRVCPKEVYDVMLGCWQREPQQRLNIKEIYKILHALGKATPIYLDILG
T3 sequence (P04629 33-796): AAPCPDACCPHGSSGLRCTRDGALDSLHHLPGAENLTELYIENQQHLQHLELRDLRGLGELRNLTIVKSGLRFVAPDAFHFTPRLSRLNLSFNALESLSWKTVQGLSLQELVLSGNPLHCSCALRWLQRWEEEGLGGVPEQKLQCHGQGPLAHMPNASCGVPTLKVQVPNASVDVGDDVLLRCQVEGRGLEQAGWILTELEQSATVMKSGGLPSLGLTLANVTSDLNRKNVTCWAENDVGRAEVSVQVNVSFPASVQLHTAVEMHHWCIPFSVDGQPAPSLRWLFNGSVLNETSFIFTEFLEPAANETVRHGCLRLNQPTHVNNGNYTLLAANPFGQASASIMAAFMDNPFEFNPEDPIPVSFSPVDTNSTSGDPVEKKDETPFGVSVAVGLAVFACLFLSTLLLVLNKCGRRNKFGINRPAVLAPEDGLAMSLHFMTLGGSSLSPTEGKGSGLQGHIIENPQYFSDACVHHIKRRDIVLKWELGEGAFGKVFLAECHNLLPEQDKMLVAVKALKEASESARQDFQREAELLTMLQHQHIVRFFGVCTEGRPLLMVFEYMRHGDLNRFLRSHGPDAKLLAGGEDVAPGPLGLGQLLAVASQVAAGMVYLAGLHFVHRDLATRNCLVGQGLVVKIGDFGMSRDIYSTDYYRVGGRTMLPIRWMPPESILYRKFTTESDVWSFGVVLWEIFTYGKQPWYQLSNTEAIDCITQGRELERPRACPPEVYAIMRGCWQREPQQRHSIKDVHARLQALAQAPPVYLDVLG

Molecule | prevention of Aβ-induced degeneration ([1]; 3 day incubation) | activation of TrkB (Trk phosphorylation, anti-TrkY490) (TrkB) | phosphorylation of Trk in TrkC-expressing cells (TrkC) | other results
CC[C@H](C)[C@H](N)C(=O)NCCN1CCOCC1 [LM11A-31, reference compound] | blocks Aβ-induced degeneration | – | – | –
NGF: Nerve Growth Factor, a neurotrophin; native ligand of TrkA | fails to prevent Aβ-induced degeneration | do not activate TrkB | – | effect on LM11A-31 blocking of Aβ-induced degeneration ([1]; NGF together with LM11A-31): blocked
NT-3: Neurotrophin-3; native ligand of TrkC | – | – | promotes the phosphorylation of Trk | –
Aβ1-42 oligomer: amyloid-β 1-42 oligomer preparation used to induce neuronal degeneration [reference compound] | – | – | – | reduction in neuronal survival ([1]; 10 μM, 3 day incubation): ~40%
COC(=O)[C@@]1(O)C[C@H]2O[C@]1(C)n1c3ccccc3c3c4c(c5c6ccccc6n2c5c31)C(=O)NC4 [Compound K252a] | – | – | – | effect on quinolinic acid-induced death ([2]; K252a alone): no effect; effect on the ability of BDNF to prevent quinolinic acid-induced death ([2]; K252a with BDNF): blocks the ability of BDNF to prevent death
B1 | – | activate TrkB | do not | prevention of quinolinic acid-induced death ([2]; previous work): can prevent quinolinic acid-induced death; activation of TrkA (Trk phosphorylation) (TrkA): does not
